Measurements from article PMC9068900, “Pharmacology of Kappa Opioid Receptors: Novel Assays and Ligands” (Frontiers in Pharmacology, 2022).
Marks after values point to notes of the source that are not given here.

Legend:
[1] = target: T1, human delta opioid receptor (Homo sapiens, UniProt P41143); assay: Calcium mobilization in CHO cells co-expressing the delta receptor and GαqG66Di5; format: cell-based
T1 construct: expressed in transfected cells

[2] = test system: human kappa opioid receptor; assay: Bias factor, G protein vs β-arrestin 2, from BRET data
Experimental: To quantify the differences in agonist efficacies for G protein and arrestin interactions, bias factors were calculated by choosing the endogenous kappa opioid ligand Dyn A as standard unbiased ligand. For this analysis, the Emax and EC50 of the agonist were derived using a 3-parameter logistic model with slope values equal to unity. […] Under such conditions, the relative ratio (Emax/EC50)lig/(Emax/EC50)Dyn A is equivalent to the relative (τ/K)lig/(τ/K)Dyn A ratio as defined by the operational model ([Black and Leff, 1983]; [Griffin et al., 2007]). Taking ratios of these values between G protein and arrestin can cancel the common K and yield the ratio of ligand intrinsic efficacy across the two transduction proteins. Thus, the following formula was used for calculating agonist bias factors in log10 units: bias factor= log[(Emax/EC50)lig/(Emax/EC50)Dyn A]G prot.−log[(Emax/EC50)lig/(Emax/EC50)Dyn A]β−arr.
The pharmacological terminology and computations related to biased agonism were consistent with IUPHAR recommendations ([Kolb et al., 2022]).

human mu opioid receptor = target: T2, human mu opioid receptor (Homo sapiens, UniProt P35372); assay: Calcium mobilization in CHO cells co-expressing the mu receptor and Gαqi5; format: cell-based
T2 construct: expressed in transfected cells

[3] = target: T3, human kappa opioid receptor (Homo sapiens, UniProt P41145); assay: BRET kappa-β-arrestin 2 interaction, SH-SY5Y whole cells; format: cell-based; design: 13-mer linker peptide […]; expressed in transfected cells; enriched plasma membranes used
[4] = target: T3, human kappa opioid receptor; assay: Calcium mobilization in CHO cells co-expressing the kappa receptor and Gαqi5; format: cell-based; design: expressed in transfected cells
[5] = target: T3, human kappa opioid receptor; assay: Dynamic mass redistribution (DMR) label-free assay in CHO cells; format: cell-based; design: expressed in transfected cells
Experimental: DMR experiments were conducted as previously described ([Malfacini et al., 2018]). Chinese Hamster Ovary (CHO) cells stably expressing the human kappa receptor were kindly provided by L Toll (Torrey Pines Institute for Molecular Studies, Port St. Lucie, United States). Cells were cultured in Dulbecco’s Modified Eagle Medium: Nutrient Mixture F-12 (DMEM/F12) supplemented with 10% (v/v) Fetal Calf Serum (FCS), 100 U/ml penicillin, 100 μg/ml streptomycin, 2 mM L-glutamine, 15 mM HEPES. The medium was supplemented with 400 μg/ml G418 to maintain expression. Cells were seeded at a density of 45,000 cells/well in 120 μL into fibronectin-coated EnspireTM-LC 96-wells plates and cultured for 20 h to form a confluent monolayer. On the day of the experiment, cells were washed twice and maintained with assay buffer: HBSS with 20 mM HEPES, 0.01% BSA fraction V; for 90 min before the experiment. DMR was monitored in real-time with a temporal resolution of 44 s throughout the assay. Experiments were performed at 37°C, using an EnSight Multimode Plate Reader (PerkinElmer). A 5 min baseline was first established, followed by adding compounds manually in a volume of 40 μL and recording compound-triggered DMR signal for 60 min. In antagonism experiments, ligands tested as antagonists were added 30 min before agonist administration. Maximum picometers (pm) modification (peak) were used to determine agonist response after baseline normalization.
The pharmacological terminology is consistent with the International Union of Basic and Clinical Pharmacology (IUPHAR) recommendations ([Neubig et al., 2003]). Concentration-response curves to agonists were fitted to the four-parameter logistic nonlinear regression model as follows: Effect=Basal+ Emax−Basal/1+10^ (LogEC50−Log[ligand]) × HillSlope
If unsurmountable antagonist behavior was detected, the pKB value was derived as follows: a double-reciprocal plot of equi-effective concentrations of agonist (A) in the absence (1/A) and presence (1/A’) of the antagonist (B) was constructed and pKB was derived from the equation pKB = log {(slope-1)/[B]} ([Kenakin, 2009]).

[6] = target: T3, human kappa opioid receptor; assay: biochemical; format: biochemical; design: 13-mer linker peptide […]; expressed in transfected cells; enriched plasma membranes used
[7] = target: T3, human kappa opioid receptor; assay: Summary over the assays used (calcium mobilization, DMR, BRET); format: cell-based; design: expressed in transfected cells
kappa opioid receptor = test system: kappa opioid receptor; design: method as in Arimitsu et al., 1977; conditions: ref Arimitsu et al., 1977, cited from earlier work
mice [8] = test system: mice; design: method as in Gairin et al., 1988a; conditions: intracerebroventricular, ref Gairin et al., 1988a; cited from earlier work
mice [9] = test system: mice; design: method as in Gairin et al., 1988a; conditions: intracerebroventricular, ref Gairin et al., 1988a; cited from earlier work; remark: listed apart in the source

T3 sequence (P41145 whole entry): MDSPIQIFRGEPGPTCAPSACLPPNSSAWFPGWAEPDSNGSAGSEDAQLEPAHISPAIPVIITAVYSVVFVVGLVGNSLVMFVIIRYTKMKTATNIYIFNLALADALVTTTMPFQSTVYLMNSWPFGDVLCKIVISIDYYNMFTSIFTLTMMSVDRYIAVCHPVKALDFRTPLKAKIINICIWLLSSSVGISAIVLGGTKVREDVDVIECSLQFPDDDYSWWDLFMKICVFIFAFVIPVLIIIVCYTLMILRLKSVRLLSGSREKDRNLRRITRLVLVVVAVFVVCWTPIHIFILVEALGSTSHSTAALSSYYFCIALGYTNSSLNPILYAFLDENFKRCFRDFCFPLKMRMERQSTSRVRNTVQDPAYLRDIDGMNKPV
T1 sequence (P41143 whole entry): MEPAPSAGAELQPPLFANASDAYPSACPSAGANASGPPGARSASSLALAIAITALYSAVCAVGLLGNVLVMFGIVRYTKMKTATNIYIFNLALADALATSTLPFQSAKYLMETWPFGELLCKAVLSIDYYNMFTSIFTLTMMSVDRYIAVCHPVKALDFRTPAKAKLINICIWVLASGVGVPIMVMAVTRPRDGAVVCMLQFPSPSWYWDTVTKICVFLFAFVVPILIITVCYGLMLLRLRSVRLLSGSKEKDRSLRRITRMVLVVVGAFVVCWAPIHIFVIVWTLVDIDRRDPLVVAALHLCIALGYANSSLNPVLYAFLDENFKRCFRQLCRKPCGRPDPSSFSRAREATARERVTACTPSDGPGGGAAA
T2 sequence (P35372 whole entry): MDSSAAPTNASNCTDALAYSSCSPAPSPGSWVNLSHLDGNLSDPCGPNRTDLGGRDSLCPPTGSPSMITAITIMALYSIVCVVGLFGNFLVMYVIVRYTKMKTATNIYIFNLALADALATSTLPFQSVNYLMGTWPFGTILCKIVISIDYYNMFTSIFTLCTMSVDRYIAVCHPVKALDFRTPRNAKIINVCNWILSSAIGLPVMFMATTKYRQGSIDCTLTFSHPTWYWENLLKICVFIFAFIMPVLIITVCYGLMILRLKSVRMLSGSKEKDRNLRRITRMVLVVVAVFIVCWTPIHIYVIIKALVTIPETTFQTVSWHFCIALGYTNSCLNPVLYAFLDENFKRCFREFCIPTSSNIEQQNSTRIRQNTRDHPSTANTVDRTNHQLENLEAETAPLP

CC[C@H](C)[C@H](NC(=O)[C@H](CCCNC(=N)N)NC(=O)[C@H](CCCNC(=N)N)NC(=O)[C@H](CC(C)C)NC(=O)[C@H](Cc1ccccc1)NC(=O)CNC(=O)CNC(=O)[C@@H](N)Cc1ccc(O)cc1)C(=O)N[C@@H](CCCNC(=N)N)C(=O)N1CCC[C@H]1C(=O)N[C@@H](CCCCN)C(=O)N[C@@H](CC(C)C)C(=O)N[C@@H](CCCCN)C(=O)N[C@@H](Cc1c[nH]c2ccccc12)C(=O)N[C@@H](CC(=O)O)C(=O)N[C@@H](CC(N)=O)C(=O)N[C@@H](CCC(N)=O)C(=O)O [Dyn A, dynorphin A]
Maximal effects ([1]; CHO cells, delta + GαqG66Di5): 171 % over the baseline | Bias factor (CL95%) [2]: 0.00

CCCCCCCCCCCCCCCC(=O)NCCCN1C(=O)CC(SC[C@H](NC(=O)[C@H](CCC(N)=O)NC(=O)[C@H](CC(N)=O)NC(=O)[C@H](CC(=O)O)NC(=O)[C@H](Cc2c[nH]c3ccccc23)NC(=O)[C@H](CCCCN)NC(=O)[C@H](CC(C)C)NC(=O)[C@H](CCCCN)NC(=O)[C@@H]2CCCN2C(=O)[C@H](CCCNC(=N)N)NC(=O)[C@@H](NC(=O)[C@H](CCCNC(=N)N)NC(=O)[C@H](CCCNC(=N)N)NC(=O)[C@H](CC(C)C)NC(=O)[C@H](Cc2ccccc2)NC(=O)CNC(=O)CNC(=O)[C@@H](N)Cc2ccc(O)cc2)[C@@H](C)CC)C(N)=O)C1=O (some centres unmarked) [Dyn A-palmitic]
Less potent than DPDPE ([1]; calcium mobilization, delta): 10 fold | Lower potency than dermorphin (human mu opioid receptor; calcium mobilization, mu): approximately 6 fold

CC[C@H](C)[C@H](NC(=O)[C@H](CCCNC(=N)N)NC(=O)[C@H](CCCNC(=N)N)NC(=O)[C@H](CC(C)C)NC(=O)[C@H](Cc1ccccc1)NC(=O)CNC(=O)CNC(=O)[C@@H](N)Cc1ccc(O)cc1)C(=O)N[C@@H](CCCNC(=N)N)C(=O)N1CCC[C@@H]1C(=O)N[C@@H](CCCCN)C(N)=O [[D-Pro^10], [D-Pro^10]Dyn(1-11)-NH2]
BRET β-Arrestin 2 pEC50 (CL95%) [3]: 8.07 (7.66–8.47) | BRET β-Arrestin 2 α [3]: 0.95 | Calcium Mobilization pEC50 (CL95%) [4]: 9.08 (8.93–9.23) | Calcium Mobilization α (intrinsic activity: maximal effect divided by that of Dyn A) [4]: 1.00 | DMR Emax [5]: 251 pm | DMR pEC50 (CL95%) [5]: 9.84 (9.31–10.37) | DMR α [5]: 1.07 | BRET G Protein pEC50 (CL95%) [6]: 8.36 (6.54–10.19) | BRET G Protein α [6]: 1.00

Nc1nc2c(ncn2[C@@H]2O[C@H](COP(=O)(O)OP(=O)(O)O)[C@@H](O)[C@H]2O)c(=O)[nH]1 [GDP, guanosine diphosphate]
pEC50 (CL95%) ([6]; 5 min after compound addition): 8.20 | pEC50 (CL95%) ([6]; 30 min after compound addition): 8.21

CC[C@H](C)[C@H](NC(=O)[C@H](CCCNC(=N)N)NC(=O)[C@H](CCCNC(=N)N)NC(=O)[C@H](CC(C)C)NC(=O)[C@H](Cc1ccccc1)NC(=O)CNC(=O)CNC(=O)[C@@H](N)Cc1ccc(O)cc1)C(=O)N[C@@H](CCCNC(=N)N)C(=O)N1CCC[C@H]1C(=O)N[C@@H](CCCCN)C(=O)N[C@@H](CC(C)C)C(=O)N[C@@H](CCCCN)C(=O)N[C@@H](Cc1c[nH]c2ccccc12)C(=O)N[C@@H](CC(=O)O)C(=O)N[C@@H](CC(N)=O)C(=O)N[C@@H](CCC(N)=O)C(=O)N[C@@H](CSC1CC(=O)N(CCCC(=O)N2CCCN(C(=O)CCCN3C(=O)CC(SC[C@H](NC(=O)[C@H](CCC(N)=O)NC(=O)[C@H](CC(N)=O)NC(=O)[C@H](CC(=O)O)NC(=O)[C@H](Cc4c[nH]c5ccccc45)NC(=O)[C@H](CCCCN)NC(=O)[C@H](CC(C)C)NC(=O)[C@H](CCCCN)NC(=O)[C@@H]4CCCN4C(=O)[C@H](CCCNC(=N)N)NC(=O)[C@@H](NC(=O)[C@H](CCCNC(=N)N)NC(=O)[C@H](CCCNC(=N)N)NC(=O)[C@H](CC(C)C)NC(=O)[C@H](Cc4ccccc4)NC(=O)CNC(=O)CNC(=O)[C@@H](N)Cc4ccc(O)cc4)[C@@H](C)CC)C(N)=O)C3=O)CCN(C(=O)CCCN3C(=O)CC(SC[C@H](NC(=O)[C@H](CCC(N)=O)NC(=O)[C@H](CC(N)=O)NC(=O)[C@H](CC(=O)O)NC(=O)[C@H](Cc4c[nH]c5ccccc45)NC(=O)[C@H](CCCCN)NC(=O)[C@H](CC(C)C)NC(=O)[C@H](CCCCN)NC(=O)[C@@H]4CCCN4C(=O)[C@H](CCCNC(=N)N)NC(=O)[C@@H](NC(=O)[C@H](CCCNC(=N)N)NC(=O)[C@H](CCCNC(=N)N)NC(=O)[C@H](CC(C)C)NC(=O)[C@H](Cc4ccccc4)NC(=O)CNC(=O)CNC(=O)[C@@H](N)Cc4ccc(O)cc4)[C@@H](C)CC)C(N)=O)C3=O)CCCN(C(=O)CCCN3C(=O)CC(SC[C@H](NC(=O)[C@H](CCC(N)=O)NC(=O)[C@H](CC(N)=O)NC(=O)[C@H](CC(=O)O)NC(=O)[C@H](Cc4c[nH]c5ccccc45)NC(=O)[C@H](CCCCN)NC(=O)[C@H](CC(C)C)NC(=O)[C@H](CCCCN)NC(=O)[C@@H]4CCCN4C(=O)[C@H](CCCNC(=N)N)NC(=O)[C@@H](NC(=O)[C@H](CCCNC(=N)N)NC(=O)[C@H](CCCNC(=N)N)NC(=O)[C@H](CC(C)C)NC(=O)[C@H](Cc4ccccc4)NC(=O)CNC(=O)CNC(=O)[C@@H](N)Cc4ccc(O)cc4)[C@@H](C)CC)C(N)=O)C3=O)CC2)C1=O)C(N)=O (some centres unmarked) [PWT2-Dyn A]
BRET β-Arrestin 2 α [3]: ∼1.00 | EC50 [3]: 219 nM | Lower potency than Dyn A [3]: 3 fold | Stimulatory effect ([1]; only at the highest concentration tested): 77 % over the baseline | Lower potency than dynorphin A [7]: 3–10 fold | Calcium Mobilization α (intrinsic activity: maximal effect divided by that of Dyn A) [4]: ∼1.00 | EC50 [4]: 30.9 nM | Agonist activity (in words) (human mu opioid receptor; CHO cells, mu + Gαqi5): inactive | DMR α [5]: 0.84 | Lower potency than Dyn A [5]: 4 fold | BRET G Protein α [6]: ∼1.00 | Lower potency than Dyn A [6]: 3 fold | EC50 ([6]; BRET G Protein pEC50 (CL95%)): 18.6 nM | Bias factor (CL95%) [2]: ∼0.18 ^c

C[C@@H](NC(=O)[C@@H](N)Cc1ccc(O)cc1)C(=O)N[C@@H](Cc1ccccc1)C(=O)NCC(=O)N[C@@H](Cc1ccc(O)cc1)C(=O)N1CCC[C@H]1C(=O)N[C@@H](CO)C(N)=O [Dermorphin]
Maximal effects (human mu opioid receptor; CHO cells, mu + Gαqi5): 294 % over the baseline

[D-Pro^10]Dyn(1-11)
Higher affinity to the kappa opioid receptor than Dyn A (kappa opioid receptor; [^3H]Bremazocine binding): 7 fold | Selectivity over the delta opioid receptor (kappa opioid receptor): 233 fold | Selectivity over the mu opioid receptor (kappa opioid receptor): 62 fold | Effect in acetic acid-induced writhing (mice [8]): dose-dependent antinociceptive effect | Activity against thermal stimulus (tail-flick) (mice [9]): did not show any activity
